Laboratory results published in paper PMC3353944, “BC4707 Is a Major Facilitator Superfamily Multidrug Resistance Transport Protein from Bacillus cereus Implicated in Fluoroquinolone Tolerance” (PLoS ONE, 2012).

Target: T1, BC4707 (Bacillus cereus, UniProt Q816V8)
T1 construct: gene BC_4707; full-length with RGSHis6 tag (kept), expressed from pTTQ18 (pBC4707) in E. coli DH5alpha delta-acrAB
Test: norfloxacin accumulation assay, fluorescence of cell extracts vs empty-vector cells
Type: cell-based
Settings: E. coli DH5alpha delta-acrAB, 100 uM norfloxacin, 20 mM glucose, pH 7.0; CCCP (100 uM) added at 15 min

T1 sequence (Q816V8 entry or part of it): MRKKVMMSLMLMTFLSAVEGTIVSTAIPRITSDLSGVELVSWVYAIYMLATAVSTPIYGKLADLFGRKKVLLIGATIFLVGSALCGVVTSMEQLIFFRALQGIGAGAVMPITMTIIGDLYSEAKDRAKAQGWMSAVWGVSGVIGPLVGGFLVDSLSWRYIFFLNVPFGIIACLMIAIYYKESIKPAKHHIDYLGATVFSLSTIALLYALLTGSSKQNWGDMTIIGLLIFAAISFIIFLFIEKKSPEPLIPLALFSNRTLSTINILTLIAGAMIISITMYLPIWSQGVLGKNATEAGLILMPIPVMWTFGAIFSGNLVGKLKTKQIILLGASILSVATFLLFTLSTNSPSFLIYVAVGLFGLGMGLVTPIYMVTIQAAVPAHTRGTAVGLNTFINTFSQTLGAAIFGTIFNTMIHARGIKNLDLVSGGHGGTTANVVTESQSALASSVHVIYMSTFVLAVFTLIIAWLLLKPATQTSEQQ

SMILES: CCn1cc(C(=O)O)c(=O)c2cc(F)c(N3CCNCC3)cc21 [norfloxacin]
- norfloxacin accumulation assay, fluorescence of cell extracts vs empty-vector ce: indicating that the presence of BC4707-RGSHis6 prevents accumulation of norfloxacin in the cells
